Reference: patent US10550400B2, “Methods to monitor post-translational gene silencing activity in plant tissues/cell types relevant for pathogen entry, propagation or replication” (Paris Sciences et Lettres—Quartier Latin, priority 2014, dated 2020)

Assays:
Format in all cases: in vivo, Arabidopsis thaliana
SUL protein = test: Western blot of SUL protein levels in SA-treated SUC-SUL leaves; settings: 2 mM SA + 0.01% Silwet L-77, 3 days, vs Mock
Procedure: C. Western blot analyses showing SUL and CIP4 protein levels in SUC-SUL leaves treated with either Mock (0.01% Silwet L-77 only) or with 2 mM of SA (+0.01% Silwet L-77) for 3 days.
(§1) For this purpose, they have sprayed a previously characterized phloem-specific IR-PTGS sensor (Dunoyer et al., 2005) with either (1) Salicylic acid (SA), a well-characterized phytohormone that plays a critical role in resistance against biotrophic pathogens, (2) 2,6-dichloroisonicotonic acid and benzo-(1,2,3)-thiadiazole-7-carbothioic acid S-methyl ester (BTH), a functional analog of SA that is regularly used by farmers to enhance disease resistance in crops, (3) Aliette, formulated fosetyl-Aluminium that can stimulate plant antimicrobial defense in cultivated plants but also protect them from fungal and oomycete infections through a potent and systemic fungicide activity, (4) Serenade, which is composed of formulated Bacillus subtilis (5) formulated Laminarine, a beta 1-3 glucan that mimics fungal cell wall and therefore promote natural antifungal defense responses in some cultivated plants; and have further monitored the effects of such treatments on the vein-centered chlorotic phenotype of this IR-PTGS reporter system. […]

[1] = system: biosensor specific to xylem parenchyma cells; test: Visual chlorosis of sprayed xylem-specific biosensors (AAP6-p::SUL-LUS, IRX3-p::SUL-LUS); settings: 2 mM SA with 0.02% Silwet L-77, 5 days, AAP6-p::SUL-LUS and IRX3-p::SUL-LUS; listed as SA
Procedure: Picture of 5-week-old SUC-SUL, HYD-p::SUL-LUS, AAP6-p::SUL-LUS, IRX3-p::SUL-LUS or GC1-p::SUL-LUS plants treated either Mock (0.02% Silwet L-77 only) or 2 mM of SA (with 0.02% Silwet L-77) for 5 days.
To test whether the increase level of PTGS detected in SA-treated phloem-specific IR-PTGS sensor is detectable to other tissues, the inventors have sprayed different tissue-specific biosensors with the same concentration of SA. The biosensors specific to hydathodes, xylem parenchyma cells, guard cells and companion cells of phloem were sprayed with SA and the level of chlorosis was assessed 5 day later (FIG. 6). […] These observations therefore highlight the importance of using different tissue-specific biosensors to screen natural or synthetic compounds, microorganisms, macro- or micro-organism extracts that can have a PTGS inducer activity specifically in a given tissue that is relevant to manage a specific disease. On the contrary, we are anticipating that the whole series of reporters will be also exploited to identify molecules, microorganisms or extracts that can induce PTGS/immune responses in all the above tissues. Such compounds, microorganisms or extracts will have the potential to confer broad-spectrum disease resistance and to restrict growth of pathogens with different modes of entry, propagation and replication. […]

SUL transcript = test: RT-qPCR of SUL transcript levels in SA-treated SUC-SUL leaves; settings: 2 mM SA + 0.01% Silwet L-77, 3 days, vs Mock
Procedure: B. RT-qPCR analysis depicting SUL and CIP4 transcript levels in SUC-SUL leaves treated with either Mock (0.01% Silwet L-77 only) or with 2 mM of SA (+0.01% Silwet L-77) for 3 days.
as §1

[2] = system: phloem-specific IR-PTGS sensor; test: Visual chlorotic phenotype of sprayed phloem-specific IR-PTGS sensor (SUC-SUL plants); settings: for chlorotic phenotype / PTGS activity, phloem-specific reporter: 2 mM SA with 0.02% Silwet L-77, 5 days, SUC-SUL; for vein-centered chlorotic phenotype (IR-PTGS activity): sprayed on phloem-specific IR-PTGS sensor
From the text: A. […]
In step (b), said molecule, microorganism or extract can be applied either at seedling stage or at later developmental stages such as at rosette stage. This molecule, microorganism or extract is applied either in liquid medium in (micro) well-plates, by infiltration using a needle-less syringe or vacuum, or by spray using a concentration of surfactant that is known from people skilled in the art.
Visual observation of step (c) can be made several days, preferably 4 to 5 days, after step (b) The term “silencing” means down-regulating or antagonizing, at least partly, a targeted gene transcript.
For this purpose, they have sprayed a previously characterized phloem-specific IR-PTGS sensor (Dunoyer et al., 2005) with either (1) Salicylic acid (SA), a well-characterized phytohormone that plays a critical role in resistance against biotrophic pathogens, (2) 2,6-dichloroisonicotonic acid and benzo-(1,2,3)-thiadiazole-7-carbothioic acid S-methyl ester (BTH), a functional analog of SA that is regularly used by farmers to enhance disease resistance in crops, (3) Aliette, formulated fosetyl-Aluminium that can stimulate plant antimicrobial defense in cultivated plants but also protect them from fungal and oomycete infections through a potent and systemic fungicide activity, (4) Serenade, which is composed of formulated Bacillus subtilis (5) formulated Laminarine, a beta 1-3 glucan that mimics fungal cell wall and therefore promote natural antifungal defense responses in some cultivated plants; and have further monitored the effects of such treatments on the vein-centered chlorotic phenotype of this IR-PTGS reporter system. […] It is noteworthy that the presented molecular analyses allow us (i) to detect at which steps of the PTGS a given molecule is acting (small RNA biogenesis and/or RISC activity) (ii) to quantify the strength by which the candidate molecules is modulating RNA silencing in a given tissue that is relevant for disease management. […]

artificial siRNAs = system: artificial siRNAs
From the text: These level analyses will determine (i) at which steps of the RNA silencing pathway a given molecule, microorganism or extract is acting (small RNA biogenesis, accumulation and/or activity) (ii) the intensity by which a given molecule, microorganism or extract is modulating RNA silencing. Regarding the quantification of artificial or endogenous small RNA accumulation, Low Molecular Weight (LMW) Northern blot analyses or Real Time quantitative PCR (RT-qPCR) analyses can be used. Concerning the quantification of artificial or endogenous small RNA targets, High Molecular Weight (HMW) Northern analyses or RT-PCR analyses can be used. […]

SMILES | SUL protein levels (SUL protein) | chlorotic phenotype / PTGS activity, xylem parenchyma reporters [1] | SUL transcript accumulation (SUL transcript) | chlorotic phenotype / PTGS activity, phloem-specific reporter [2] | chlorotic phenotype / PTGS activity, phloem-specific reporter ([2]; listed as SA) | vein-centered chlorotic phenotype (IR-PTGS activity) [2] | accumulation of artificial siRNAs (artificial siRNAs)
O=C(O)c1ccccc1O [Salicylic acid] | significant decrease | not in other silencing reporter tested | mild reduction | promotes PTGS activity | significant enhanced chlorotic phenotype | significant enhanced chlorotic phenotypes | no significant effect
CSC(=O)c1cccc2nnsc12 [BTH, benzo-(1,2,3)-thiadiazole-7-carbothioic acid S-methyl ester] |  |  |  |  |  | significant enhanced chlorotic phenotypes | 
O=C(O)c1cc(Cl)nc(Cl)c1 [2,6-dichloroisonicotonic acid] |  |  |  |  |  | significant enhanced chlorotic phenotypes | 
